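Five compound concentrations were applied to cells in 96-well plates for 48 hours; endpoints were derived by simple linear interpolation of the resulting dose-response curve. Abbreviation: GI50, concentration required for 50% inhibition of growth.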 The source made the active and inactive calls. No stated cut-off is given here; in the data, active = GI50 up to about 1.1 µM and inactive = higher.
Tests used:
Experiment in all cases: DTP human tumour cell line panel, 48 h
DU-145 = tested on: DU-145
EKVX = tested on: EKVX
HCT-15 = tested on: HCT-15
HL-60 = tested on: HL-60
HOP-62 = tested on: HOP-62
Hs-578T = tested on: Hs-578T
KM12 = tested on: KM12
LOX IMVI = tested on: LOX IMVI
MDA-MB-435 = tested on: MDA-MB-435
Malme-3M = tested on: Malme-3M
NCI-H226 = tested on: NCI-H226
NCI-H460 = tested on: NCI-H460
NCI-H522 = tested on: NCI-H522
PC-3 = tested on: PC-3
RXF 393 = tested on: RXF 393
SF-268 = tested on: SF-268
SF-539 = tested on: SF-539
SK-OV-3 = tested on: SK-OV-3
SNB-19 = tested on: SNB-19

| SMILES | GI50 (DU-145) | GI50 (EKVX) | GI50 (HCT-15) | GI50 (HL-60) | GI50 (HOP-62) | GI50 (Hs-578T) | GI50 (KM12) | GI50 (LOX IMVI) | GI50 (MDA-MB-435) | GI50 (Malme-3M) | GI50 (NCI-H226) | GI50 (NCI-H460) | GI50 (NCI-H522) | GI50 (PC-3) | GI50 (RXF 393) | GI50 (SF-268) | GI50 (SF-539) | GI50 (SK-OV-3) | GI50 (SNB-19) |
| --- | --- | --- | --- | --- | --- | --- | --- | --- | --- | --- | --- | --- | --- | --- | --- | --- | --- | --- | --- |
| CCNCC(=O)Nc1ccc2c(c1)C(=O)c1ccc(NC(=O)CNCC)cc1C2=O | 2.69 µM (inactive) | 4.93 µM (inactive) | 1.93 µM | 3.01 µM (inactive) | 5.75 µM (inactive) | 4.02 µM (inactive) | 11.7 µM (inactive) | 2.26 µM (inactive) | 2.27 µM (inactive) | 15.5 µM (inactive) | 5.51 µM (inactive) | 1.49 µM (inactive) | 1.87 µM (inactive) | 2.76 µM (inactive) | 2.53 µM (inactive) | 3.27 µM (inactive) | 4.97 µM (inactive) | 2.76 µM (inactive) | 2.7 µM (inactive) |
| CCCCOP1(=O)C=C(C)C(=C(Cl)Cl)C(C)=C1 (stereo not drawn) |  | 47.4 µM (inactive) | 11.5 µM | 2.4 µM (inactive) | 13.9 µM (inactive) |  | 2 µM (inactive) | 5.21 µM (inactive) |  | 14.1 µM (inactive) | 3.38 µM (inactive) | 13 µM (inactive) | 5.45 µM (inactive) |  | 8.51 µM (inactive) | 5.56 µM (inactive) | 23.6 µM (inactive) | 19.5 µM (inactive) | 25.8 µM (inactive) |
| CC1(C)COC2(OC1)C1=NS(=O)(=O)CC13CCC2C3(C)C (stereo not drawn) |  | > 100 µM (inactive) | > 100 µM | > 100 µM (inactive) | > 100 µM (inactive) |  | > 100 µM (inactive) | > 100 µM (inactive) |  | > 100 µM (inactive) | > 100 µM (inactive) | > 100 µM (inactive) | > 100 µM (inactive) |  | > 100 µM (inactive) | > 100 µM (inactive) | > 100 µM (inactive) | > 100 µM (inactive) | > 100 µM (inactive) |
| CSc1ccc(/C=C/c2ccnc3ccccc23)cc1 | 13.9 µM (inactive) | 10.4 µM (inactive) | 11.5 µM | 3.97 µM (inactive) | 20.3 µM (inactive) | 20.9 µM (inactive) | 20.3 µM (inactive) | 12.7 µM (inactive) | 3.69 µM (inactive) | 17.6 µM (inactive) | 14.5 µM (inactive) | 12.2 µM (inactive) | 12.5 µM (inactive) | 6.67 µM (inactive) | 18.5 µM (inactive) | 26 µM (inactive) | 17.6 µM (inactive) | 16 µM (inactive) | 17.7 µM (inactive) |
| O=C1OC2(CCCCC2)C(Oc2ccc(Cl)cc2)=C1F | 92.9 µM (inactive) | 38.2 µM (inactive) |  | 23.7 µM (inactive) | > 100 µM (inactive) | 50 µM (inactive) | 40.1 µM (inactive) | 27.9 µM (inactive) | 35.6 µM (inactive) | 15.6 µM (inactive) |  | 41.1 µM (inactive) | 12.7 µM (inactive) | 42.8 µM (inactive) | 61.9 µM (inactive) | 54 µM (inactive) | > 100 µM (inactive) | > 100 µM (inactive) | 88.7 µM (inactive) |
| COc1ccc(/C(=N/NC(N)=O)C(c2ccc(OC)cc2)C2C(=O)Oc3ccccc32)cc1 (stereo not drawn) |  |  | > 100 µM | > 100 µM (inactive) | > 100 µM (inactive) |  | > 100 µM (inactive) | > 100 µM (inactive) |  | > 100 µM (inactive) | > 100 µM (inactive) | > 100 µM (inactive) | > 100 µM (inactive) |  | 86.1 µM (inactive) | > 100 µM (inactive) | > 100 µM (inactive) | > 100 µM (inactive) | > 100 µM (inactive) |
| COc1ccc2c(c1)CC[C@@H]1C2CC[C@]2(C)C(=C=CP(=O)(O)O)CCC12 (stereo partly drawn) | > 100 µM (inactive) | > 100 µM (inactive) | > 100 µM |  | > 100 µM (inactive) | > 100 µM (inactive) | > 100 µM (inactive) | > 100 µM (inactive) | > 100 µM (inactive) | > 100 µM (inactive) | > 100 µM (inactive) | > 100 µM (inactive) | > 100 µM (inactive) | > 100 µM (inactive) | > 100 µM (inactive) | > 100 µM (inactive) | > 100 µM (inactive) | > 100 µM (inactive) | > 100 µM (inactive) |
| O=C1C=C(Nc2ccccc2C(=O)CC(=O)C(=O)Nc2cccc([N+](=O)[O-])c2)c2ccccc2C1=O |  | > 100 µM (inactive) | 23.8 µM | 3.38 µM (inactive) | > 100 µM (inactive) |  | 36.7 µM (inactive) | 4.82 µM (inactive) |  | 20.4 µM (inactive) | 59.3 µM (inactive) | 93.3 µM (inactive) | 21.8 µM (inactive) |  | 46.3 µM (inactive) | 22.2 µM (inactive) | > 100 µM (inactive) | > 100 µM (inactive) | 23.3 µM (inactive) |
| CC(=O)Nc1ccc(-c2nnc(SCC(=O)Nc3ccc(Cl)cc3Cl)o2)cc1 |  |  | 38.5 µM | 27.8 µM (inactive) | 70 µM (inactive) |  | 65.9 µM (inactive) | 27.8 µM (inactive) |  | 20.7 µM (inactive) | 29.2 µM (inactive) | 32.9 µM (inactive) | 20.7 µM (inactive) |  | 33.7 µM (inactive) | 44.7 µM (inactive) | 33 µM (inactive) | 64.3 µM (inactive) | 22.6 µM (inactive) |
| CC1(C)CCC[C@@]2(C)C1CC[C@H]1CC(O)C3(C)CCC12C3 (stereo partly drawn) |  |  | 18.2 µM | 23.3 µM (inactive) | 19.1 µM (inactive) |  | 17.5 µM (inactive) | 15.4 µM (inactive) |  | 16.9 µM (inactive) | 20 µM (inactive) | 18.5 µM (inactive) | 16.6 µM (inactive) |  | 13.3 µM (inactive) | 19.2 µM (inactive) | 18.9 µM (inactive) | 18.3 µM (inactive) | 18 µM (inactive) |
| O=C1NCCS(=O)(=O)N[C@@H](CC2=CC=CCC2)C(=O)N2CCCC12 (stereo partly drawn) |  | > 100 µM (inactive) | > 100 µM | > 100 µM (inactive) | > 100 µM (inactive) |  | > 100 µM (inactive) | > 100 µM (inactive) |  | > 100 µM (inactive) | > 100 µM (inactive) | > 100 µM (inactive) | > 100 µM (inactive) |  | > 100 µM (inactive) | > 100 µM (inactive) | > 100 µM (inactive) | > 100 µM (inactive) | > 100 µM (inactive) |
| COC(=O)CCc1ccc2c(c1)CC1(Cc3ccccc3C1)C2 |  | > 100 µM (inactive) | > 100 µM | 51.9 µM (inactive) | > 100 µM (inactive) | > 100 µM (inactive) | > 100 µM (inactive) | > 100 µM (inactive) | > 100 µM (inactive) | > 100 µM (inactive) | > 100 µM (inactive) |  | 74 µM (inactive) | > 100 µM (inactive) | > 100 µM (inactive) |  | > 100 µM (inactive) | > 100 µM (inactive) |  |
| CCOC(=O)NC(C(C(=O)OCC)C(=O)OCC)(C(F)(F)F)C(F)(F)F | > 100 µM (inactive) | > 100 µM (inactive) | > 100 µM | > 100 µM (inactive) | > 100 µM (inactive) | > 100 µM (inactive) | > 100 µM (inactive) | > 100 µM (inactive) | > 100 µM (inactive) | > 100 µM (inactive) | > 100 µM (inactive) | > 100 µM (inactive) | > 100 µM (inactive) | > 100 µM (inactive) | > 100 µM (inactive) | > 100 µM (inactive) | > 100 µM (inactive) |  | > 100 µM (inactive) |

Source: ChEMBL document CHEMBL1201862, “PubChem BioAssay data set” (2004)
